Publication PMC3662054 (Journal of biological inorganic chemistry : JBIC : a …, 2012)

Biological target: T1, 20S proteasome (chymotrypsin-like activity) (Homo sapiens, UniProt P28074)
T1 sequence (P28074 60-263): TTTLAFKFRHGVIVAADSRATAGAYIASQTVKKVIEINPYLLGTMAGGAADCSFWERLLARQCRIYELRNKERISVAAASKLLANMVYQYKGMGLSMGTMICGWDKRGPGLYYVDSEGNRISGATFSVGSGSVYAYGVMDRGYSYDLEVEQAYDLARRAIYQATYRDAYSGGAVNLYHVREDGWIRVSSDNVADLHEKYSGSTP
Assay: fluorogenic Suc-LLVY-AMC hydrolysis by purified […] proteasome
Format: biochemical

| SMILES | IC50 [µM] |
| --- | --- |
| O=C([O-])CCc1c[nH]c2ccccc12.O=C([O-])CCc1c[nH]c2ccccc12.[Cu+2].c1cnc2c(c1)ccc1cccnc12 [compound 6, Complex 6] | 3.3 |
| O=C([O-])Cc1c[nH]c2ccccc12.O=C([O-])Cc1c[nH]c2ccccc12.O=C([O-])Cc1c[nH]c2ccccc12.O=C([O-])Cc1c[nH]c2ccccc12.[Cu+2].[Cu+2] [compound 3, Complex 3] | 3 |
